Measurements as given in ChEMBL document CHEMBL3885861, “Open TG-GATES”.

Organism: Rattus norvegicus
Test: Open TG-GATES - Regimen: Single
Assay type: toxicity, organism-based, Sprague-Dawley
Set-up: regimen Single, gender Male, age 6 weeks
Conditions: in vivo, po, 20 mg/kg, route gavage, dose level Middle; for APTT / Bas / Eos / Fbg / Hb / Ht / Lym / MCH / MCHC / MCV / Mono / Neu / PT / Plat / RBC / Ret / WBC: tissue Blood; for LIVER: tissue Liver; for A/G / ALP / ALT / AST / BUN / CRE / Ca / Cl / DBIL / GLC / IP / K / LDH / Na / PL / RALB / TBIL / TC / TG / TP / gamma-GTP: tissue Plasma

Compound `O=[N+]([O-])c1ccc(O)c([N+](=O)[O-])c1` [2,4-DINITROPHENOL] has a TERMINAL_BW (3 h) of 203.6 g, an APTT (3 h) of 16.6 s and a Bas (3 h) of 0%. It also gave an Eos (3 h) of 1%, a Fbg (3 h) of 246.4 mg/dL and a Hb (3 h) of 12.6 g/dL. For the same compound, the Ht (3 h) was 37.5%, the Lym (3 h) was 75% and the MCH (3 h) was 22 pg. For the same compound, the MCHC (3 h) was 33.5%, the MCV (3 h) was 65.6 fL and the Mono (3 h) was 11.8%. The Neu (3 h) was 12.4%, the PT (3 h) was 11.8 s and the Plat (3 h) was 115.4 x10_4/uL. The RBC (3 h) was 572.2 x10_4/ul, the Ret (3 h) was 10.2% and the WBC (3 h) was 93.4 x10_2/uL. The LIVER (3 h) was 9.5 g, the A/G (3 h) was 2.3 and the ALP (3 h) was 1342.4 IU/L. It also gave an ALT (3 h) of 37.8 IU/L, an AST (3 h) of 62.6 IU/L and a BUN (3 h) of 12.8 mg/dL. The CRE (3 h) was 0.4 mg/dL, the Ca (3 h) was 11.9 mg/dL and the Cl (3 h) was 104 meq/L. For the same compound, the DBIL (3 h) was 0.012 mg/dL, the GLC (3 h) was 218.2 mg/dL and the IP (3 h) was 10.9 mg/dL. The K (3 h) was 4.2 meq/L, the LDH (3 h) was 125.2 IU/L and the Na (3 h) was 138.4 meq/L. It also gave a PL (3 h) of 143 mg/dL, an RALB (3 h) of 3.8 g/dL and a TBIL (3 h) of 0.036 mg/dL. The TC (3 h) was 85.4 mg/dL, the TG (3 h) was 68.6 mg/dL and the TP (3 h) was 5.5 g/dL. It also gave a gamma-GTP (3 h) of 0 IU/L, a TERMINAL_BW (6 h) of 200.1 g and an APTT (6 h) of 16 s. For the same compound, the Bas (6 h) was 0%, the Eos (6 h) was 1.2% and the Fbg (6 h) was 235 mg/dL. The Hb (6 h) was 13.1 g/dL, the Ht (6 h) was 39.1% and the Lym (6 h) was 71.4%. It also gave an MCH (6 h) of 22 pg, an MCHC (6 h) of 33.6% and an MCV (6 h) of 65.5 fL. It also gave a Mono (6 h) of 10.2%, a Neu (6 h) of 17.2% and a PT (6 h) of 12 s. For the same compound, the Plat (6 h) was 124 x10_4/uL, the RBC (6 h) was 596.4 x10_4/ul and the Ret (6 h) was 8.9%. It also gave a WBC (6 h) of 111 x10_2/uL, an LIVER (6 h) of 8.2 g and an A/G (6 h) of 2.6. It also gave an ALP (6 h) of 1422.2 IU/L, an ALT (6 h) of 36.4 IU/L and an AST (6 h) of 78.6 IU/L. It also gave a BUN (6 h) of 12.2 mg/dL, a CRE (6 h) of 0.4 mg/dL and a Ca (6 h) of 11 mg/dL. For the same compound, the Cl (6 h) was 105.8 meq/L, the DBIL (6 h) was 0.02 mg/dL and the GLC (6 h) was 204.6 mg/dL. It also gave an IP (6 h) of 10.9 mg/dL, a K (6 h) of 4.5 meq/L and an LDH (6 h) of 129.2 IU/L. For the same compound, the Na (6 h) was 139.2 meq/L, the PL (6 h) was 141.2 mg/dL and the RALB (6 h) was 3.9 g/dL. For the same compound, the TBIL (6 h) was 0.044 mg/dL, the TC (6 h) was 85.6 mg/dL and the TG (6 h) was 46.4 mg/dL. The TP (6 h) was 5.4 g/dL, the gamma-GTP (6 h) was 0 IU/L and the TERMINAL_BW (9 h) was 203.1 g. The APTT (9 h) was 16.2 s, the Bas (9 h) was 0% and the Eos (9 h) was 0.8%. For the same compound, the Fbg (9 h) was 255.5 mg/dL, the Hb (9 h) was 12.9 g/dL and the Ht (9 h) was 38.4%. It also gave a Lym (9 h) of 77.2%, an MCH (9 h) of 22.1 pg and an MCHC (9 h) of 33.8%. For the same compound, the MCV (9 h) was 65.4 fL, the Mono (9 h) was 4.8% and the Neu (9 h) was 17.2%. For the same compound, the PT (9 h) was 12 s, the Plat (9 h) was 132.8 x10_4/uL and the RBC (9 h) was 587.2 x10_4/ul. It also gave a Ret (9 h) of 10.4%, a WBC (9 h) of 104.5 x10_2/uL and an LIVER (9 h) of 8.5 g. For the same compound, the A/G (9 h) was 2.4, the ALP (9 h) was 1370.8 IU/L and the ALT (9 h) was 34 IU/L. The AST (9 h) was 64.5 IU/L, the BUN (9 h) was 10.5 mg/dL and the CRE (9 h) was 0.4 mg/dL. For the same compound, the Ca (9 h) was 11.3 mg/dL, the Cl (9 h) was 104.5 meq/L and the DBIL (9 h) was 0.02 mg/dL. For the same compound, the GLC (9 h) was 198.5 mg/dL, the IP (9 h) was 11.2 mg/dL and the K (9 h) was 4.7 meq/L. It also gave an LDH (9 h) of 158 IU/L, a Na (9 h) of 139 meq/L and a PL (9 h) of 153.8 mg/dL. It also gave an RALB (9 h) of 3.9 g/dL, a TBIL (9 h) of 0.045 mg/dL and a TC (9 h) of 83.5 mg/dL. It also gave a TG (9 h) of 70.2 mg/dL, a TP (9 h) of 5.6 g/dL and a gamma-GTP (9 h) of 0 IU/L. The TERMINAL_BW (24 h) was 216.8 g, the APTT (24 h) was 15.6 s and the Bas (24 h) was 0%. It also gave an Eos (24 h) of 1.2%, a Fbg (24 h) of 234.2 mg/dL and a Hb (24 h) of 12.9 g/dL. The Ht (24 h) was 38.4%, the Lym (24 h) was 70.4% and the MCH (24 h) was 21.6 pg. The MCHC (24 h) was 33.7%, the MCV (24 h) was 64.2 fL and the Mono (24 h) was 11.6%. For the same compound, the Neu (24 h) was 16.8%, the PT (24 h) was 11.7 s and the Plat (24 h) was 125.6 x10_4/uL. The RBC (24 h) was 597.8 x10_4/ul, the Ret (24 h) was 9% and the WBC (24 h) was 122.2 x10_2/uL. The LIVER (24 h) was 11.1 g, the A/G (24 h) was 2.4 and the ALP (24 h) was 1483.4 IU/L. It also gave an ALT (24 h) of 43.2 IU/L, an AST (24 h) of 67.2 IU/L and a BUN (24 h) of 16 mg/dL. It also gave a CRE (24 h) of 0.4 mg/dL, a Ca (24 h) of 11.3 mg/dL and a Cl (24 h) of 103.2 meq/L. It also gave a DBIL (24 h) of 0.01 mg/dL, a GLC (24 h) of 182.2 mg/dL and an IP (24 h) of 7.2 mg/dL. It also gave a K (24 h) of 4.6 meq/L, an LDH (24 h) of 101.4 IU/L and a Na (24 h) of 139 meq/L. The PL (24 h) was 163.8 mg/dL, the RALB (24 h) was 3.9 g/dL and the TBIL (24 h) was 0.032 mg/dL. For the same compound, the TC (24 h) was 90 mg/dL, the TG (24 h) was 131.8 mg/dL and the TP (24 h) was 5.5 g/dL. It also gave a gamma-GTP (24 h) of 0.8 IU/L.
